Assay results published in US10195248B2, “Use of haptoglobin subunit for promoting wound healing” (Taipei Medical University, priority 2016, dated 2019).

System: low-density lipoproteins (LDL)
Test: Anti-oxidant test (TBARS production, Cu-induced LDL oxidation)
Type: biochemical
Details: 5 μM CuSO4, 20 μg LDL, 37° C., 2 hours; TBARS absorbance 540 nm; FIG. 1
Method: In this experiment, production level of thiobarbituric acid-reactive substances (TBARS) was measured to determine oxidization level of low-density lipoproteins (LDL). Specifically, […], of each test article was mixed with 5 μM copper (II) sulfate (CuSO4) and 20 μg of LDL, and then incubated at 37° C. for 2 hours. 250 μL of 20% tricholoroacetic acid was added to the precipitated protein. After that, 250 μL of 0.67% 2-thiobarbituric acid was added to the obtained mixture and incubated at 80° C. for 30 minutes. The final resultant was separated to give a supernatant by centrifugation at 3,000 g for 5 minutes. 300 μL of the supernatant was taken to a 96-well plate to measure its absorbance under 540 nm.

Compound	inhibitory concentration (IC50) for anti-oxidant activity (rank order)
CC(C)(Sc1cc(C(C)(C)C)c(O)c(C(C)(C)C)c1)Sc1cc(C(C)(C)C)c(O)c(C(C)(C)C)c1 [probucol, Probucol]	follow it sequentially
Hp β subunit: haptoglobin β subunit	follow it sequentially
